Test results reported in publication PMC12150283, “Synthesis of new Ag(I) and Cd(II) hydrozanomide-based complexes with antibacterial and anticancer properties” (RSC Advances, 2025).
Where two headings read alike, the source gives them in different places.

How the values were obtained:
[1] = tested on: Salmonella typhimurium ATCC 14028; parameters: method as in earlier work; settings: pure ligands, S. typhimurium ATCC 14028; previous study ref 29; cited from earlier work
[2] = tested on: glioblastoma LN-229 cells; experiment: MTT cell viability assay; assay type: cell-based, human; settings: 48 hours of incubation
Experimental: (§1) The glioblastoma cell lines LN-229 and U87 and the reference human normal skin fibroblast BJ were obtained from the American Type Culture Collection (ATCC). Cells were grown as monolayers when cultured in cell culture flasks and cultured in Dulbecco's Modified Eagle Medium (DMEM) – LN-229 and Eagle's Minimum Essential Medium (EMEM) – U87 and BJ, supplemented with 10% (v/v) fetal bovine serum, penicillin (10 000 U mL^−1), streptomycin (10 mg mL^−1) and amphotericin B (250 μg mL^−1). The cells were incubated at 37 °C, 5% CO2 atmosphere. The cells were maintained in the logarithmic growth phase by regular passage at 80% confluence.
(§2) The cytotoxicity of the tested compounds was evaluated against both human glioblastoma LN-229 and U-87 as well as normal BJ cell lines. The cells were plated in 96-well culture plates (2 × 10^4 well) and after 24 h incubation the cells were treated with the tested compounds in the concentration range 1–50 μM. The cells were cultured for the next 48 h. The cytotoxicity of the compounds was evaluated using the MTT colorimetric method as previously described.[28,29] IC50 values were determined using the AAT Bioquest IC50 calculator as the concentration of compounds capable of reducing cell viability by 50%. The experiment was performed in triplicate for each concentration. To examine the cytotoxic effect of compounds on cell morphology, cells were examined under an inverted phase contrast microscope Nikon Eclipse Ti with NIS Element software (Tokyo, Japan).

[3] = tested on: normal skin fibroblast BJ cells; experiment: MTT cell viability assay; assay type: cell-based, human; settings: BJ normal fibroblasts, 48 hours of incubation
Experimental: as §1, §2

glioblastoma U87 cells = experiment: MTT cell viability assay; assay type: cell-based, human; settings: 48 hours of incubation
Experimental: as §1, §2

[4] = tested on: Staphylococcus aureus ATCC 25923; parameters: method as in earlier work; settings: pure ligands, S. aureus ATCC 25923; previous study ref 29; cited from earlier work
[5] = tested on: Enterococcus faecalis ATCC 29212; parameters: method as in earlier work; settings: pure ligands, E. faecalis ATCC 29212; previous study ref 29; cited from earlier work
[6] = tested on: Staphylococcus epidermidis ATCC 12228; parameters: method as in earlier work; settings: pure ligands, S. epidermidis ATCC 12228; previous study ref 29; cited from earlier work
E. faecalis ATCC 29212 = experiment: Diffusion-well method, inhibition zones; assay type: cell-based, Enterococcus faecalis; settings: 500 µg/mL, wells 10 mm
Experimental: (§3) The antibacterial activity of tested samples was assessed against both gram-positive bacteria (Staphylococcus aureus ATCC 25923, Staphylococcus aureus ATCC 6538, Staphylococcus epidermidis ATCC 12228, Enterococcus faecalis ATCC 29212, Listeria monocytogenes ATCC 19115, Bacillus subtilis ATCC 6633, Bacillus cereus ATCC 10876) and gram-negative bacteria (Escherichia coli ATCC 10530, Salmonella typhimurium ATCC 14028). Antibacterial properties were evaluated using both the dilution method (employing DMSO and 96-well plates) and the diffusion-well method (using Mueller Hinton Agar, Merck, Germany).
(§4) 24 hour bacterial cultures with a density of 1–2 × 10^8 CFU mL^−1 were plated (0.1 mL) on Mueller–Hinton Agar (Merck, Germany). Subsequently, wells with a diameter of 10 mm were cut out from and filled with 100 μL of the tested compound at a concentration of 10–500 μg mL^−1 (diluted in DMSO). After an 18-hour incubation at either 30 °C (for Bacillus ssp.) or 37 °C (for other tested microorganisms), the inhibition zones around the wells were measured, and the results were expressed in millimetres (Table S9 ^†).

B. subtilis ATCC 6633 = experiment: Diffusion-well method, inhibition zones; assay type: cell-based, Bacillus subtilis; settings: 500 µg/mL, wells 10 mm
Experimental: as §3, §4

[7] = tested on: Bacillus cereus ŁOCK 0807; experiment: MIC determination; assay type: cell-based; settings: Bacillus cereus ŁOCK 0807; 18 h
Experimental: as §3
(§5) The minimum inhibitory concentrations (MICs) of the tested samples were evaluated against a panel of reference microorganisms obtained from the American Type Culture Collection (ATCC), including Gram-negative bacteria (Escherichia coli ATCC 10530, Salmonella typhimurium ATCC 14028), and Gram-positive bacteria (Staphylococcus aureus ATCC 25923, Staphylococcus aureus ATCC 6538, Staphylococcus epidermidis ATCC 12228, Enterococcus faecalis ATCC 29212, Listeria monocytogenes ATCC 19115, Bacillus subtilis ATCC 6633), and one strain (Bacillus cereus ŁOCK 0807) obtained from the Pure Culture of Industrial Microorganisms of the Institute of Fermentation Technology and Microbiology ŁOCK 105 (Łódź, Poland).
(§6) The microorganism cultures with a density of 1.5 × 10^8 CFU mL^−1 (corresponding to a McFarland standard of 0.5) were plated on Mueller–Hinton Agar (Merck, Germany) following the procedures recommended by the European Committee on Antimicrobial Susceptibility Testing (EUCAST).[47] Wells measuring 10 mm in diameter were cut into the medium. The tested compounds were dissolved in a DMSO solution, which was recommended due to their chemical structures. Subsequently, 100 μL of prepared solutions containing the tested compounds at concentrations ranging from x μg mL^−1 to x μg mL^−1 were added to each well. The plates were incubated at 30 °C (for Bacillus subtilis and Bacillus cereus) or 37 °C (for other bacteria) for 18 hours. After incubation, the minimum inhibitory concentration (MIC value) was determined (the lowest concentration of the tested compounds that prevents bacterial growth) and expressed in μg mL^−1. The experiment was conducted in three independent replicates. Ciprofloxacin (Sigma Aldrich, Saint Louis, MO, USA) was used as a reference antimicrobial agent against Gram-negative bacteria, while vancomycin (Sigma Aldrich, Saint Louis, MO, USA) was used as a reference antimicrobial agent against Gram-positive bacteria.

[8] = tested on: Bacillus subtilis ATCC 6633; experiment: MIC determination; assay type: cell-based; settings: 18 h
Experimental: as §3, §5, §6

[9] = tested on: Listeria monocytogenes ATCC 19115; experiment: MIC determination; assay type: cell-based
Experimental: as §3, §5, §6

[10] = tested on: Staphylococcus epidermidis ATCC 12228; experiment: MIC determination; assay type: cell-based; settings: S. epidermidis ATCC 12228; 18 h
Experimental: as §3, §5, §6

[11] = tested on: Escherichia coli ATCC 10530; experiment: MIC determination; assay type: cell-based
Experimental: as §3, §5, §6

[12] = tested on: Staphylococcus aureus ATCC 6538; experiment: MIC determination; assay type: cell-based; settings: S. aureus ATCC 6538; 18 h
Experimental: as §3, §5, §6

[13] = tested on: Enterococcus faecalis ATCC 29212; experiment: MIC determination; assay type: cell-based; settings: E. faecalis ATCC 29212; 18 h
Experimental: as §3, §5, §6

[14] = tested on: Salmonella typhimurium ATCC 14028; experiment: MIC determination; assay type: cell-based; settings: S. typhimurium ATCC 14028; 18 h
Experimental: as §3, §5, §6

[15] = tested on: Staphylococcus aureus ATCC 25923; experiment: MIC determination; assay type: cell-based; settings: S. aureus ATCC 25923; 18 h
Experimental: as §3, §5, §6

[16] = tested on: S. epidermidis ATCC 12228; experiment: Diffusion-well method, inhibition zones; assay type: cell-based, Staphylococcus epidermidis; settings: 500 µg/mL, wells 10 mm
Experimental: as §3, §4

[17] = tested on: L. monocytogenes ATCC 19115; experiment: Diffusion-well method, inhibition zones; assay type: cell-based, Listeria monocytogenes; settings: 500 µg/mL, wells 10 mm
Experimental: as §3, §4

S. aureus ATCC 25923 = experiment: Diffusion-well method, inhibition zones; assay type: cell-based, Staphylococcus aureus; settings: 500 µg/mL, wells 10 mm
Experimental: as §3, §4

S. aureus ATCC 6538 = experiment: Diffusion-well method, inhibition zones; assay type: cell-based, Staphylococcus aureus; settings: 500 µg/mL, wells 10 mm
Experimental: as §3, §4

[18] = tested on: S. Typhimurium ATCC 14028; experiment: Diffusion-well method, inhibition zones; assay type: cell-based, Salmonella typhimurium; settings: 500 µg/mL, wells 10 mm
Experimental: as §3, §4

B. cereus ŁOCK 0807 = experiment: Diffusion-well method, inhibition zones; assay type: cell-based, Bacillus cereus; settings: 500 µg/mL, wells 10 mm
E. coli ATCC 10530 = experiment: Diffusion-well method, inhibition zones; assay type: cell-based, Escherichia coli; settings: 500 µg/mL, wells 10 mm
Experimental: as §3, §4

[19] = Listeria monocytogenes ATCC 19115, 18 h
[20] = Escherichia coli ATCC 10530, 18 h

Structure (SMILES) | MIC [1] [µg/mL] | IC50 ([2]; Homo sapiens) [µM] | IC50 ([3]; Homo sapiens) [µM] | IC50 (glioblastoma U87 cells; Homo sapiens, U-87 MG) [µM] | MIC [4] [µg/mL] | MIC [5] [µg/mL] | MIC [6] [µg/mL] | Inhibition zone (E. faecalis ATCC 29212) [mm] | Inhibition zone (B. subtilis ATCC 6633) [mm] | MIC [7] [µg/mL] | MIC [8] [µg/mL] | MIC [9, 19] [µg/mL] | MIC [10] [µg/mL] | MIC [11, 20] [µg/mL] | MIC [12] [µg/mL] | MIC [13] [µg/mL] | MIC [14] [µg/mL] | MIC [15] [µg/mL] | IC50 [2] [µM] | IC50 [3] [µM] | further results
N/C(=N\N=C\c1ccccc1)c1cncc(N2CCCC2)n1 [Complex L6, (benzylidene)-6-(pyrrolidin-1-yl)pyrazine-2-carbohydra-zonamide] | 500 | > 50 | 42.4 ± 6.17 | > 50 | 500 | 500 | 500 |  |  |  |  |  |  |  |  |  |  |  |  |  | 
NC(=NN=Cc1ccccc1)c1cncc(Cl)n1 [Complex L1, N′-(benzylidene)-6-chloropyrazine-2-carbohydrazonamide] | >500 | > 50 | > 50 | > 50 | 500 | 250 | 500 |  |  |  |  |  |  |  |  |  |  |  |  |  | 
NC(=NN=Cc1ccccc1)c1cncc(N2CCOCC2)n1.O.O=[N+]([O-])[O-].[Ag+] [Complex 5, AgL5NO3 × H2O] |  |  |  |  |  |  |  | 17 | 18 | 50 | 50 | 10 | <10 | > 500 | 10 | 50 | 50 | 50 | > 50 | > 50 | IC50 (glioblastoma U87 cells): 49.7 ± 3.11 µM; Inhibition zone [16]: 18 mm; Inhibition zone [17]: 19 mm; Inhibition zone (S. aureus ATCC 25923): 19 mm; Inhibition zone (S. aureus ATCC 6538): 17 mm; Inhibition zone [18]: 17 mm; Inhibition zone (B. cereus ŁOCK 0807): 19 mm
NC(=NN=Cc1ccc([N+](=O)[O-])cc1)c1cccc(Cl)n1.O=[N+]([O-])[O-].[Ag+] [Complex 2, AgL2NO3] |  |  |  |  |  |  |  | 14 | 16 | 50 | 50 | 10 | > 500 | 10 | 50 | 50 | 50 | 50 | 37.2 ± 6.55 | 14.5 ± 2.82 | Inhibition zone (E. coli ATCC 10530): 20 mm; MIC ([9]; Listeria monocytogenes): 10 µg/mL; MIC ([11]; Escherichia coli): 10 µg/mL; IC50 (glioblastoma U87 cells): > 50 µM; Inhibition zone [17]: 19 mm; Inhibition zone (S. aureus ATCC 25923): 19 mm; Inhibition zone (S. aureus ATCC 6538): 22 mm; Inhibition zone [18]: 19 mm; Inhibition zone (B. cereus ŁOCK 0807): 18 mm
N/C(=N\N=C\c1ccccc1)c1cncc(N2CCOCC2)n1 [Complex L5, (benzylidene)-6-morpholinopyrazine-2-carbohydrazonamide] | >500 | > 50 | > 50 | > 50 | >500 | >500 | >500 |  |  |  |  |  |  |  |  |  |  |  |  |  | 
N/C(=N\N=C\c1ccc([N+](=O)[O-])cc1)c1cccc(N2CCCC2)n1 [Complex L4, (4-nitrobenzylidene)-6-(pyrrolidin-1-yl)picolinohydrazonamide] | >500 | 48.1 ± 6.09 | > 50 | > 50 | >500 | >500 | >500 |  |  |  |  |  |  |  |  |  |  |  |  |  | 
